In patent US20230124862A1, “BISMUTH THIOL COMPOUNDS AND COMPOSITIONS AND METHODS OF TREATING MICROBIAL CO-INFECTIONS” (Microbion Corporation, priority 2020, published 2023):
Converted amounts (≈) assume the structure as drawn. Like-named read-outs stand apart in the source and are kept apart here.

Key:
Acinetobacter baumannii = experiment: Broth microdilution MIC (Example 12); format: cell-based
P. aeruginosa [1] = experiment: MIC testing of CF isolates and control strain
[2] = tested on: Burkholderia cepacia complex; format: cell-based, Burkholderia spp.; conditions: initial MIC testing
Achromobacter spp. = experiment: MIC testing of CF isolates; format: cell-based
S. maltophilia = experiment: MIC testing of CF isolates; format: cell-based, Stenotrophomonas maltophilia; conditions: S. maltophilia (SM21)
Pseudomonas aeruginosa [3] = conditions: P. aeruginosa ATCC 27853; CLSI established QC range; cited from earlier work
B. cepacia = experiment: MIC testing of CF isolates; format: cell-based, Burkholderia cepacia; conditions: B. cepacia (B. cepacia complex) (BC17)
B. multivorans = experiment: MIC testing of CF isolates; format: cell-based, Burkholderia multivorans; conditions: B. multivorans (B. cepacia complex) (BC5b)
P. aeruginosa [4] = conditions: P. aeruginosa isolate 103; CLSI QC range in parenthesis; cited from earlier work
Pseudomonas aeruginosa [5] = experiment: Broth microdilution MIC (Example 12); format: cell-based
Klebsiella pneumoniae = experiment: Broth microdilution MIC (Example 12); format: cell-based
Escherichia coli = experiment: Broth microdilution MIC (Example 12); format: cell-based
B. cenocepacia = experiment: MIC testing of CF isolates; format: cell-based, Burkholderia cenocepacia
M. abscessus complex = experiment: MIC testing of CF isolates; format: cell-based, Mycobacterium abscessus
[6] = tested on: Burkholderia cepacia complex; experiment: Checkerboard FIC/FICI assay; format: cell-based, Burkholderia spp.; conditions: during FIC testing
P. aeruginosa [7] = conditions: P. aeruginosa isolate 103; CLSI QC range in parenthesis; cited from earlier work; remark: listed apart in the source
N. gonorrhoeae = N. gonorrhoeae MMX 683 (ATCC 49226); cited from earlier work
[8] = tested on: DNA synthesis in E. coli ATCC 25922; conditions: 16X the MIC

Q: With `NCC[C@H](O)C(=O)N[C@@H]1C[C@H](N)[C@@H](O[C@H]2O[C@H](CN)[C@@H](O)[C@H](O)[C@H]2O)[C@H](O)[C@H]1O[C@H]1O[C@H](CO)[C@@H](O)[C@H](N)[C@H]1O` [AMK] as the compound, how does the MIC (Acinetobacter baumannii; A. baumannii CDC 273, ESBL/OXA) read?
A: >64 µg/mL

Q: What about the MIC (Acinetobacter baumannii; A. baumannii CDC 274, ESBL/OXA) of the same compound?
A: 16 µg/mL (≈ 27.3 µM)

Q: And the MIC (Acinetobacter baumannii; A. baumannii CDC 275, ESBL/OXA)?
A: >64 µg/mL

Q: What about the MIC (Acinetobacter baumannii; A. baumannii CDC 277, ESBL/OXA) of the same compound?
A: 16 µg/mL (≈ 27.3 µM)

Q: And the MIC (Acinetobacter baumannii; A. baumannii CDC 307, OXA)?
A: >64 µg/mL

Q: What about the MIC (Acinetobacter baumannii; A. baumannii CDC 308, ESBL/OXA) of the same compound?
A: >64 µg/mL

Q: What about the MIC (Acinetobacter baumannii; A. baumannii CDC 311, OXA) of the same compound?
A: >64 µg/mL

Q: And the MIC (Acinetobacter baumannii; A. baumannii CDC 312, OXA)?
A: 1 µg/mL (≈ 1.71 µM)

Q: And the MIC (Acinetobacter baumannii; A. baumannii CDC 313, ESBL/OXA)?
A: 4 µg/mL (≈ 6.83 µM)

Q: And the MIC (Acinetobacter baumannii; A. baumannii NCTC 13304, OXA)?
A: 0.5 µg/mL (≈ 0.854 µM)

Q: And the MIC (P. aeruginosa [1])?
A: >64 µg/mL

Q: And the MIC (P. aeruginosa [1]; P. aeruginosa (AGR1), CF isolate)?
A: 16 µg/mL (≈ 27.3 µM)

Q: And the MIC ([2]; B. cenocepacia isolate 0548 (CIP-R))?
A: 256 µg/mL (≈ 437 µM)

Q: And the MIC ([2]; B. cenocepacia isolate 1631)?
A: 256 µg/mL (≈ 437 µM)

Q: What about the MIC ([2]; B. cenocepacia isolate 1783) of the same compound?
A: 256 µg/mL (≈ 437 µM)

Q: And the MIC ([2]; B. cenocepacia isolate 8555)?
A: 256 µg/mL (≈ 437 µM)

Q: And the MIC ([2]; B. cepacia isolate 0546)?
A: 64 µg/mL (≈ 109 µM)

Q: What about the MIC ([2]; B. cepacia isolate 1793) of the same compound?
A: 64 µg/mL (≈ 109 µM)

Q: And the MIC ([2]; B. cepacia isolate 9040)?
A: 8 µg/mL (≈ 13.7 µM)

Q: And the MIC ([2]; B. multivorans isolate 5665 (CIP-I))?
A: 256 µg/mL (≈ 437 µM)

Q: And the MIC ([2]; B. multivorans isolate 8952 (CIP-I))?
A: 64 µg/mL (≈ 109 µM)

Q: And the MIC (Achromobacter spp.; A. xylosoxidans (AX4))?
A: >64 µg/mL

Q: And the MIC (Achromobacter spp.; Achromobacter spp. (AX1))?
A: 64 µg/mL (≈ 109 µM)

Q: And the MIC (S. maltophilia)?
A: 64 µg/mL (≈ 109 µM)

Q: And the “QC range of MIC” value (Pseudomonas aeruginosa [3])?
A: (1-4) μg/mL

Q: What about the MIC (B. cepacia) of the same compound?
A: >64 µg/mL

Q: What about the MIC (B. multivorans) of the same compound?
A: >64 µg/mL

Q: What about the “CLSI QC range of MIC” value (P. aeruginosa [4]) of the same compound?
A: (1-4) μg/mL

Q: And the MIC (Pseudomonas aeruginosa [5]; P. aeruginosa ATCC 27853, ATCC QC organism (Table 102))?
A: 2 µg/mL (≈ 3.42 µM)

Q: And the MIC (Pseudomonas aeruginosa [5]; P. aeruginosa CDC 230, VIM/OXA)?
A: >64 µg/mL

Q: And the MIC (Pseudomonas aeruginosa [5]; P. aeruginosa CDC 231, KPC/OXA)?
A: 8 µg/mL (≈ 13.7 µM)

Q: What about the MIC (Pseudomonas aeruginosa [5]; P. aeruginosa CDC 246, NDM/OXA) of the same compound?
A: >64 µg/mL

Q: And the MIC (Pseudomonas aeruginosa [5]; P. aeruginosa CDC 250, NDM/OXA)?
A: >64 µg/mL

Q: What about the MIC (Pseudomonas aeruginosa [5]; P. aeruginosa CDC 356, KPC) of the same compound?
A: 2 µg/mL (≈ 3.42 µM)

Q: And the MIC (Pseudomonas aeruginosa [5]; P. aeruginosa CDC 439, IMP)?
A: >64 µg/mL

Q: What about the MIC (Pseudomonas aeruginosa [5]; P. aeruginosa CDC 444, VIM) of the same compound?
A: >64 µg/mL

Q: What about the MIC (Pseudomonas aeruginosa [5]; P. aeruginosa CDC 457, VIM) of the same compound?
A: 2 µg/mL (≈ 3.42 µM)

Q: What about the MIC (Pseudomonas aeruginosa [5]; P. aeruginosa CDC 516, KPC/AmpC) of the same compound?
A: 2 µg/mL (≈ 3.42 µM)

Q: And the MIC (Pseudomonas aeruginosa [5]; P. aeruginosa CDC 518, KPC/AmpC)?
A: 16 µg/mL (≈ 27.3 µM)

Q: And the MIC (Klebsiella pneumoniae; K. pneumoniae ATCC BAA-1705, ESBL/KPC)?
A: […]

Q: And the MIC (Klebsiella pneumoniae; K. pneumoniae CDC 112, KPC)?
A: […]

Q: What about the MIC (Klebsiella pneumoniae; K. pneumoniae CDC 113, ESBL/KPC) of the same compound?
A: […]

Q: What about the MIC (Klebsiella pneumoniae; K. pneumoniae CDC 115, ESBL/KPC) of the same compound?
A: […]

Q: What about the MIC (Klebsiella pneumoniae; K. pneumoniae CDC 120, ESBL/KPC) of the same compound?
A: […]

Q: And the MIC (Klebsiella pneumoniae; K. pneumoniae CDC 126, ESBL/KPC)?
A: […]

Q: And the MIC (Klebsiella pneumoniae; K. pneumoniae CDC 129, ESBL/KPC)?
A: […]

Q: What about the MIC (Klebsiella pneumoniae; K. pneumoniae CDC 135, ESBL/VIM) of the same compound?
A: […]

Q: What about the MIC (Klebsiella pneumoniae; K. pneumoniae CDC 138, ESBL/NDM) of the same compound?
A: […]

Q: What about the MIC (Klebsiella pneumoniae; K. pneumoniae CDC 158, ESBL/NDM/OXA) of the same compound?
A: […]

Q: And the MIC (Escherichia coli; E. coli ATCC 25922, ATCC QC organism (Table 102))?
A: 1 µg/mL (≈ 1.71 µM)

Q: What about the MIC (Escherichia coli; E. coli ATCC 35218, ATCC QC organism (Table 102)) of the same compound?
A: 1 µg/mL (≈ 1.71 µM)

Q: And the MIC (Escherichia coli; E. coli ATCC 35218, ESBL)?
A: 1 µg/mL (≈ 1.71 µM)

Q: And the MIC (Escherichia coli; E. coli ATCC BAA-2471, NDM)?
A: 64 µg/mL (≈ 109 µM)

Q: And the MIC (Escherichia coli; E. coli CDC 114, ESBL/KPC)?
A: 1 µg/mL (≈ 1.71 µM)

Q: And the MIC (Escherichia coli; E. coli CDC 118, ESBL/NDM)?
A: >64 µg/mL

Q: And the MIC (Escherichia coli; E. coli CDC 435, NDM)?
A: >64 µg/mL

Q: What about the MIC (Escherichia coli; E. coli CDC 451, KPC) of the same compound?
A: 4 µg/mL (≈ 6.83 µM)

Q: What about the MIC (Escherichia coli; E. coli CDC 503, ESBL/NDM) of the same compound?
A: >64 µg/mL

Q: And the MIC (Escherichia coli; E. coli MMX 5745, KPC)?
A: 0.5 µg/mL (≈ 0.854 µM)

Q: What about the MIC (Escherichia coli; E. coli MMX 5755, ESBL) of the same compound?
A: 16 µg/mL (≈ 27.3 µM)

Q: What about the MIC (Escherichia coli; E. coli MMX 5756, ESBL) of the same compound?
A: 64 µg/mL (≈ 109 µM)

Q: What about the MIC (Escherichia coli; E. coli MMX 5758, ESBL) of the same compound?
A: 1 µg/mL (≈ 1.71 µM)

Q: And the MIC (B. cenocepacia; B. cenocepacia (B. cepacia complex) (AU197))?
A: >64 µg/mL

Q: And the MIC (B. cenocepacia; B. cenocepacia (B. cepacia complex) (BC15))?
A: >64 µg/mL

Q: What about the MIC (M. abscessus complex; M. abscessus/massiliense complex (AMT0068-40)) of the same compound?
A: 32^2 μg/mL

Q: And the MIC (M. abscessus complex; M. abscessus/massiliense complex (AMT0119-7))?
A: 32^2 μg/mL

Q: And the MIC (M. abscessus complex; M. abscessus/massiliense complex (AMT0493-2), AMK R)?
A: >64^2 μg/mL

Q: What about the MIC (M. abscessus complex; M. abscessus/massiliense complex (AMT01130-8)) of the same compound?
A: 16^2 μg/mL

Q: What about the MIC (M. abscessus complex; M. abscessus/massiliense complex (AMT1539)) of the same compound?
A: 32^2 μg/mL

Q: And the MIC (M. abscessus complex; M. abscessus/massiliense complex (ATCL119977), Macrolide R (inducible))?
A: 8^2 μg/mL

Q: What about the “CLSI QC range of MIC” value (P. aeruginosa [7]) of the same compound?
A: (1-4) μg/mL

Q: Which “CLSI QC range of MIC” value (N. gonorrhoeae) does the source give for `CO/N=C(\C(=O)N[C@@H]1C(=O)N2C(C(=O)O)=C(CSc3nc(=O)c(=O)[nH]n3C)CS[C@H]12)c1csc(N)n1` [Ceftriaxone] here?
A: (0.004-0.015) μg/mL

Q: With `O=C(O)c1cn(C2CC2)c2cc(N3CCNCC3)c(F)cc2c1=O` [ciprofloxacin] as the compound, how does the “inhibition of DNA synthesis” value [8] read?
A: 89.6%
